From patent publication US20160002315A1, “APOLIPOPROTEIN MIMETICS AND USES THEREOF” (UAB RESEARCH FOUNDATION, priority 2013, published 2016)

Tests used:
VLDL = conditions: peptide interacting with VLDL; cited from earlier work
MEF 1 cells = MEF 1 cells with induced LDL receptors; cited from earlier work
Apo E null mice [1] = assay: Study One: plasma cholesterol and triglycerides in Apo E null mice; format: in vivo
Procedure: (§1) The mice were fed a Western diet for 6 weeks to elevate cholesterol. The animals were then switched to a chow diet for two weeks after which they were treated with peptide or saline for 4 weeks. Treatment was then withdrawn for 4 weeks while the animals remained on a chow diet. After the 4 week post treatment phase, the mice were euthanized and tissue dissection and sample collection was performed.
(§2) Blood was drawn after 4 weeks of treatment at week 26 and analyzed for cholesterol. […] However, Apo E mimetic treatment did improve plasma marker of oxidative stress, such as ROS and PON activity. […] Because ROS have been implicated in the pathogenesis of atherosclerosis, the decrease in ROS by treatment with an Apo E mimetic is beneficial.
(§3) The mice were euthanized at week 30, which is four weeks post treatment with Apo E mimetic.

Apo E null mice [2] = assay: Study One: plasma markers of oxidative stress (ROS, PON activity) in Apo E null mice; format: in vivo
Procedure: as §1, §2
The PON gene family has anti-atherosclerotic effects, such as preventing oxidation of LDLs. Thus, the increase in PON activity in hE18A treated mice is beneficial in the atherosclerosis animal model.
as §3

Apo E null mice [3] = assay: Study One: atherosclerotic lesions (en face aorta, aortic sinus, macrophage coverage) in Apo E null mice; format: in vivo
Procedure: as §1, §3

Apo E −/− mice [4] = assay: Study Two: plaques in the aorta of Apo E -/- mice; format: in vivo; conditions: 5 mg/kg
Procedure: (§4) The mice were fed a lard diet for seven weeks and then were switched to a chow diet for four weeks. The mice were treated two times a week for four weeks and then treatment was withdrawn for four weeks. Termination 1 represents the time point immediately following termination of the Apo E mimetic treatment. Termination 2 represents the time point immediately following the four weeks of treatment withdrawal. Lipids were analyzed in the plasma (cholesterol, triglycerides) and in the liver (cholesterol esters, unesterified cholesterol, triglycerides).

cells = conditions: peptide-associated VLDL, absence of apoE; cited from earlier work
Apo E −/− mice [5] = assay: Study Two: plasma and liver lipids in Apo E -/- mice; format: in vivo; conditions: four weeks after cessation of treatment
Procedure: as §4

[6] = four weeks after the end of treatment
[7] = 4 weeks post treatment (study termination)

Ac-D-W-L-K-A-F-Y-D-K-V-A-E-K-L-K-E-A-F-NH2 (Ac-DWLKAFYDKVAEKLKEAF-NH2) [Ac-18A-NH2, control peptide, reference compound]
displacement of apo E from VLDL (VLDL): displacement of apo E from VLDL

LRRLRRRLLR-18A [Ac-hE(R)-18A-NH2]
enhancement of LDL internalization (MEF 1 cells): seven

LRKLRKRLLRDWLKAFYDKVAEKLKEAF (ApoE mimetic) [hE18A]
plasma cholesterol levels (Apo E null mice [1]; end of 4 weeks of treatment, compared to mR18L and saline): better in reducing plasma cholesterol levels
cholesterol levels (Apo E null mice [1]; [6]): not significantly different
PON-1 activity (Apo E null mice [2]; 4 weeks post treatment, over saline and mR18L): still increased
reactive oxygen species (ROS) (Apo E null mice [2]; after 4 weeks of treatment, compared to saline): significant decrease
paraoxonase (PON) activity (Apo E null mice [2]; after 4 weeks of treatment, compared to saline and mR18L): significant increase
ROS levels (Apo E null mice [2]; [6]): not significantly different
atherosclerotic lesion area in the aortic sinus (Apo E null mice [3]; [7]): significantly decreased
macrophage coverage of the aortic sinus (Apo E null mice [3]; [7]): non-significant trend towards a decrease
atherosclerotic lesion area (en face aorta) (Apo E null mice [3]; 4 weeks post treatment, compared to saline or mR18L): significantly reduced

LRKMRKRLMR-18A [Ac-mE-18A-NH2]
enhancement of LDL internalization (MEF 1 cells): three

Ac-LRKLRKRLLRDWLKAFYDKVAEKLKEAF-NH2 [Ac-hE18A-NH2, end protected analog of hE-18A]
decrease of atherosclerotic lesions in the thoracic aorta (Apo E −/− mice [4]): about 50%
reduction of lesions in the aortic arch (Apo E −/− mice [4]; at the end of treatment): about 35%
enhancement of degradation of VLDL compared to VLDL alone (cells): three
enhancement of uptake of VLDL compared to VLDL alone (cells): six
displacement of apo E from VLDL (VLDL): displacement of apo E from VLDL
PON-1 levels in HDL fractions (Apo E null mice [2]; Apo E null mice, HDL fractions 29-32): dramatic increase
cholesterol levels (Apo E −/− mice [5]): about 650 mg/dl
